{"source": "patent US6767561B2", "about": "“DNA polymerase inhibitors, mikanolide and dihydromikanolide” (Societe de Conseils de Recherches et d'Applications …, priority 1999, dated 2004)", "key": {"[1]": {"tested_on": "Klenow DNA polymerase enzyme without exonuclease", "assay": "Incorporation of cytosine labelled with 32P into a DNA in the presence of DNA polymerase in an acellular system", "type": "biochemical", "conditions": "100 μg/ml, [32P]dCTP incorporation vs control", "protocol": "Incorporation of Cytosine Labelled With ^32P into a DNA in the Presence of DNA Polymerase in an Acellular System\nLabelling of the DNA is carried out on a DNA fragment which incorporates nucleotides by way of the activity of the DNA polymerase enzyme. From these nucleotides, the dCTP is labelled by radioactive phosphorus (^32P).\nPlasmidic DNA (pc DNA 3, invitrogen, Netherlands) is diluted to a concentration of 2 ng in 45 μl of TE solution (10 MM Tris-HCl; pH 8.0; 1 mM EDTA) then denatured by heating at 100° C. for 10 minutes before being replaced directly in ice. The denatured DNA is placed in the tube which contains the buffer solution of dATP, dGTP, dTTP, the Klenow DNA polymerase enzyme without exonuclease and the random primers (Rediprime II random prime labelling system, RPN 1633, RPN 1634, Amersham pharmacia biotech). 2 μl of Redivue [^32P]dCTP ([…] 5′(α-^32P), specific activity 250 μCi, Amersham), is added to start the reaction. The reaction is carried out in the presence or absence of the compound to be tested for 10 minutes at 37° C. or 1 hour at ambient temperature. […] 10 μl is counted into 5 ml of scintillor (Instagel® plus and Packard scintillation counter). The results are expressed as a percentage of the inhibition of incorporation of the labelled nucleotide in the sample with respect to the control (100−(DPM of the sample/DPM control)*100)."}, "HT29 cells": {"tested_on": "HT29 cells", "assay": "Incorporation of tritiated thymidine into the DNA of HT29 cells in exponential growth phase (in vitro)", "type": "cell-based, human", "conditions": "1 hour treatment", "protocol": "(§1) The cell lines DU145 (human prostate cancer cells), HT29 (cancer of the colon) and Mia-PaCa2 (human pancreatic cancer cells) were acquired from the American Tissue Culture Collection (Rockville, Md., USA).\nIncorporation of Thymidine Labelled With Tritium into DNA Cells in Exponential Growth Phase (in vitro)\nHT29 cells are seeded in 96-well plates (culturPlate-96, Packard; 4000 cells per well) with the medium (DMEM, Gibco BRL complemented with 10% foetal calf serum, Gibco BRL). On day 3, the medium is removed and replaced by medium containing the tritiated thymidine (5′-thymidine TRK.328, 1 mCi, 0.6 μCi/wells, Amersham) with or without the products (range of 100 to 0.19 μg/ml per ½ dilutions). The treatments are carried out for 1 hour. The medium is then removed and the cells are washed twice with 200 μl of PBS (Gibco BRL). The lysis solution (SDS 1.25%; EDTA 5 mM) is added and left for 10 minutes at ambient temperature, then 75 μl of scintillating liquid (microscint® 40, Packard) is added. Reading is carried out using Topcount® (Packard). The results are expressed as a percentage of the inhibition of incorporation of the labelled nucleotide in the sample with respect to the control (100−(DPM of the sample/DPM control)*100)."}, "[2]": {"tested_on": "Mia-Paca2 human tumor cells", "assay": "Cell proliferation test (WST1), Mia-PaCa2", "type": "cell-based", "conditions": "Mia-Paca2, 96 hours treatment, read-out: Inhibitory concentration IC50", "protocol": "as §1\n(§2) The cells placed in 80 μl of Dulbecco's modified Eagle medium (Gibco-Brl, Cergy-Pontoise, France) completed with 10% foetal calf serum inactivated by heating (Gibco-Brl, Cergy-Pontoise, France), 50000 units/l of penicillin and 50 mg/l streptomycin (Gibco-Brl, Cergy-Pontoise, France), and 2 mM of glutamine (Gibco-Brl, Cergy-Pontoise, France) were seeded on a 96-well plate on day 0. The cells were treated on day 1 for 96 hours with increasing concentrations of each of the compounds to be tested at 50 μg/ml. At the end of this period, quantification of cell proliferation is evaluated by a colorimetric test based on the cleavage of the tetrazolium salt WST1 by mitochondrial dehydrogenases in viable cells leading to the formation of formazan (Boehringer Mannheim, Meylan, France). These tests are carried out in duplicate with 8 determinations per concentration tested. For each compound to be tested, the values included in the linear part of the sigmoid were retained for linear regression analysis and used to estimate the inhibitory concentration IC50. The products are solubilized in dimethylsulphoxide (DMSO) at 10^−2 M and finally used in culture with 0.5% DMSO."}, "DU145 human tumor cells": {"tested_on": "DU145 human tumor cells", "assay": "Cell proliferation test (WST1), DU145", "type": "cell-based", "conditions": "DU-145, 96 hours treatment, read-out: Inhibitory concentration IC50", "protocol": "as §1, §2"}}, "data": [{"smiles": "C=C1C(=O)O[C@H]2C[C@]3(C)O[C@H]3[C@@H]3O[C@@H]3C3=C[C@@H](OC3=O)[C@H]12", "note": "[Mikanolide, mikanolide]", "values": [{"measurement": "Inhibition of incorporation (%)", "setting": "[1]", "result": "79.6 (n = 3; standard deviation σ = 11.0) %"}, {"measurement": "Remaining thymidine incorporation (dpm sample/dpm control)", "setting": "HT29 cells; 25 μg/ml", "result": 1.04}, {"measurement": "Remaining thymidine incorporation (dpm sample/dpm control)", "setting": "HT29 cells; 50 μg/ml", "result": 0.61}, {"measurement": "Remaining thymidine incorporation (dpm sample/dpm control)", "setting": "HT29 cells; 100 μg/ml", "result": 0.53}, {"measurement": "IC50", "setting": "[2]", "result": 3, "unit": "µM"}, {"measurement": "IC50", "setting": "DU145 human tumor cells", "result": 15, "unit": "µM"}]}, {"smiles": "C[C@H]1C(=O)O[C@H]2C[C@]3(C)O[C@H]3[C@@H]3O[C@@H]3C3=C[C@@H](OC3=O)[C@@H]21", "note": "[Dihydromikanolide, dihydromikanolide]", "values": [{"measurement": "Inhibition of incorporation (%)", "setting": "[1]", "result": "73 (n = 5; standard deviation σ = 7) %"}, {"measurement": "Remaining thymidine incorporation (dpm sample/dpm control)", "setting": "HT29 cells; 25 μg/ml", "result": 0.58}, {"measurement": "Remaining thymidine incorporation (dpm sample/dpm control)", "setting": "HT29 cells; 50 μg/ml", "result": 0.29}, {"measurement": "Remaining thymidine incorporation (dpm sample/dpm control)", "setting": "HT29 cells; 100 μg/ml", "result": 0.19}]}]}
